Results reported in US20060019565A1, “Method for delivering biologically active substnces” (priority 2002, published 2006).

Tests used:
[1] = Release of the hydroxyl compound by hydrolysis from a treated substrate (PAN fabric, cotton, paper); format: physicochemical; conditions: for release of the active hydroxyl compound upon hydrolysis: concentrated aqueous formulation sprayed on cellulosic substrate (paper, cotton), air-dried
Method: After the treatment with the aqueous solution of the ester compound a slow release of the biologically active hydroxyl compound on the substrate starts through hydrolysis. The velocity of this process can easily be controlled through pH and/or temperature variations.
II.1 A sample of 15 g polyacrylonitrile (PAN) fabric (Dralon 5-4301), pretreated with a commercial wetting agent (TINOVETIN® JU, supplied by Ciba Specialty Chemicals) at 60° C. during 10 min and rinsed with cold water, is fixed on a support material and in an exhaust dyeing machine of type Ahiba treated with the following composition: • 7.5 ml aqueous Na2SO4 solution (100 g/l) • 2.25 ml aqueous sodium acetate solution (100 g/A) • 2.25 ml 80% acetic acid • 233.5 ml water • 3.0 ml cationic retarder (TINEGAL® MR, Ciba Specialty Chemicals) (100 g/l) • 1.5 ml aqueous solution of compound of formula (101) (100 g/l)
The temperature is kept at 98° C. for 20 min; the pH of the bath after cooling to room temperature is 4.7. The sample of PAN fabric is rinsed with cold water and subsequently dried in the air. The resulting PAN fabric contains the latent menthol.
(§1) II.5 A padding bath is prepared containing 20 g/l of compound (101) and is applied at 20-25° C. with a pick-up rate of 70-80% on cotton. After drying (65 to 15 s at 70-130° C.), the resulting fabric contains the latent menthol.
II.8 A concentrated aqueous formulation of compound (101) is sprayed on a cellulosic substrate (e.g. paper, cotton).

[2] = Antimicrobial protection of treated cotton fibre
Method: as §1
II.6 The same treatment is made on cotton using compound (102) in place of (101).
II.7 A cotton fabric is similarly treated with an aqueous formulation of compounds of formula (101) and (102).

[3] = cotton treated with aqueous formulation of (101) and (102) together
[4] = cotton, padding bath 20 g/l, 20-25° C., pick-up 70-80%

Row | regeneration of menthol from treated fabric ([1]; PAN fabric, exhaust treatment 98° C. for 20 min, bath pH 4.7-5.2, velocity of release controlled by pH) | Compound | release of the active hydroxyl compound upon hydrolysis [1] | release of the active hydroxyl compound from treated fabric [1, 3] | release of the active hydroxyl compound from treated fabric [1, 4] | antimicrobial protection ([2]; cotton padded with compound (102) alone) | antimicrobial protection [2, 3]
1 | gradually regenerated | CC1CCC(C(C)C)C(OC(=O)C[N+](C)(C)CCN(C)C)C1.[Cl-] (stereo not drawn) [compound 101] | releases menthol upon hydrolysis | slowly released | gradually regenerated |  | 
2 |  | CN(C)CC[N+](C)(C)CC(=O)Oc1cc(Cl)ccc1Oc1ccc(Cl)cc1Cl.[Cl-] [compound 102] | releases triclosan upon hydrolysis | slowly released | slowly released | good antimicrobial protection over time | good antimicrobial protection over time
